Key:
[1] = system: artemisinin-resistant plasmodium (Pf lek122); test: malaria treatment in humanized mice infected with artemisinin-resistant plasmodium; assay type: in vivo; details: i.p. on days 21-25, humanized NOG-SCID mice
Excerpt: AP2-PIPA1, which was designed in the same manner as in Example 1, was used to verify an inhibitory effect in vivo. Mice wherein red blood cells had been replaced with human red blood cells were infected with an artemisinin-resistant plasmodium and a therapeutic effect was examined in the thus-infected mice. The effect was verified in the case of administration of a PIPA alone and the case of combined administration with artemisinin.
Humanized mice were created by injecting human red blood cells (RBCs) into NOG-SCID mice. One milliliter of 50% HCT, A+ve red blood cells prepared with 0.5% Albumax and 3.1 mM hypoxanthine was injected into the NOG-SCID mice once daily for 3 weeks until 80% of the human red blood cells were established. The humanized mice were then infected with an artemisinin-resistant plasmodium (Pf lek122) by 4×10^7 RBCS infected with synchronized ring-stage parasites, and checked for parasitemia by determining a rate of Giemsa-stain positive RBCs from the infected mice. On days 21, 22, 23, 24, and 25, AP2-PIPA1 (AP2-1), artemisinin, or both were injected i.p. at the indicated dose.

Plasmodium spp. = details: known; cited from earlier work
[2] = system: artemisinin-resistant plasmodium strain, various Plasmodium strains; test: proliferation of artemisinin-resistant and other Plasmodium strains in human red blood cells in vitro; assay type: cell-based; details: 72 hours after infection
Procedure: Plasmodia were cultured in red blood cells in the presence of various concentrations of a PIPA and, 72 hours later, parasitemia was assessed;
An effect of the AP2-PIPA on proliferation of an artemisinin-resistant strain in vitro was further examined (FIG. 4). Human red blood cells were infected with various Plasmodium strains and cultured in the presence or absence of the AP2-PIPA at various concentrations. Parasitemia was evaluated at 72 hours after the infection to verify a degree of proliferation of Plasmodium treated with various concentrations of the AP2-PIPA, and an IC50 value for the AP2-PIPA in each Plasmodium strain was calculated from the above results. As a result, the AP2-PIPA1 inhibited proliferation of the artemisinin-resistant plasmodium strain with a lower IC50.

[3] = system: P. falciparum 3D7 laboratory strain; test: proliferation and life cycle of P. falciparum 3D7 at blood stage in vitro (Giemsa staining, FACS); assay type: cell-based; details: for life cycle of P. falciparum (microscopic observation, Giemsa staining): 24 and 48 hours after infection; for transition to schizont stage / schizont formation: in vitro culture
Procedure: Then, an effect of the AP2-PIPA on proliferation of a P. falciparum 3D7 laboratory strain at a blood stage in vitro was examined. Human red blood cells were infected with P. falciparum and cultured in the presence or absence of the AP2-PIPA. Microscopic observation with Giemsa staining and quantitative count of parasites and their stages by FACS analysis were performed at 24 and 48 hours after the infection.

[4] = toxicity of a single intraperitoneal administration in mice; assay type: in vivo
Procedure: (§1) Toxicity of a single intraperitoneal administration of AP2-PIPA1 was studied in mice. […] Observation of viability and general conditions, measurement of body weight, a hematology test, a blood chemistry test, and necropsy were performed as toxicity assessment indices. […] However, the value for each individual in these groups falls within a background value (34 to 58 IU/L) and thus the changes are determined to be due to physiological variation.
as §1, with “Furthermore, toxicity of a” for “Toxicity of a”, “administration of the AP2-PIPA1 was” for “administration of AP2-PIPA1 was”

[5] = system: Plasmodium berghei strain; test: mouse infection experiment, parasitemia; assay type: in vivo; details: intraperitoneal
Procedure: Furthermore, an effect of the AP2-PIPA1 was verified in a mouse infection experiment. Mice were infected with a Plasmodium berghei strain and received the AP2-PIPA1 intraperitoneally at each time point (day 1, day 2, day 3, day 4, day 5, day 6, and day 7) shown in the upper schematic diagram in FIG. 6. Blood was collected at 11 or 13 days after the infection to assess parasitemia. […] Multiple administrations of a high dose, i.e., 30 mg/kg are believed to cause toxicity.

[6] = molecular target: dsDNA containing the target sequence TGCATG (SEQ ID NO: 1), AP2-Sc binding sequence; test: binding affinity of PIPA to dsDNA containing the target sequence; parameters: species or system P. falciparum
Procedure: FIG. 1b is a schematic diagram showing a DNA fragment used in one embodiment of the present disclosure to analyze a binding strength of AP2-PIPA1 to its target sequence;
(§2) Next, a binding affinity of a PIPA to dsDNA containing the target sequence for the AP2-PIPA (FIG. 1b) was verified. As designed, the AP2-PIPA1 was bound to the target sequence with a high binding activity, that is, a Kd value of 4.0 nM (FIG. 1c). Consistent with previous reports of low off-target toxicity of a PIPA, the AP2-PIPA was not toxic in either mouse cell lines (Raw264.7 cells, NIH3T3 cells) or human cell lines (U937 cells, A549 cells) (FIG. 2a and FIG. 2b). These analysis results support safety of a PIPA at least in the dose range in vitro.

U937 cells, A549 cells = test: cytotoxicity in human cell lines (DNA release, LDH activity in culture supernatant); assay type: cell-based; details: DNA release and LDH activity in culture supernatant
Procedure: as §2

[7] = system: Raw264.7 cells, NIH3T3 cells; test: cytotoxicity in mouse cell lines (DNA release, LDH activity in culture supernatant); assay type: cell-based; details: mouse cell lines Raw264.7, NIH3T3; DNA release and LDH activity in culture supernatant
Procedure: as §2

[8] = toxicity of multiple administrations in mice; assay type: in vivo; details: once daily for 7 days orally or intraperitoneally
Procedure: Mice received various doses of AP2-PIPA1 once daily for 7 days orally or intraperitoneally. On day 8, blood was collected and AST and ALT were measured. Significant difference tests were performed for the 3 mg/kg and 10 mg/kg dose groups relative to the control group for each route of administration.
Furthermore, toxicity of multiple administrations of the AP2-PIPA1 was studied in mice. Mice received various doses of the AP2-PIPA1 once daily for 7 days orally or intraperitoneally. On day 8, blood was collected and AST and ALT were measured (FIG. 5b). Significant difference tests were performed for the 3 mg/kg and 10 mg/kg dose groups relative to the control group for each route of administration.

[9] = single intraperitoneal administration 5, 10, 20 mg/kg, observed 7 days
[10] = 30 mg/kg dose group, multiple administrations
[11] = 3 and 10 mg/kg vs control, blood on day 8

C[C@@H]1CC[C@H]2[C@@H](C)C(=O)O[C@@H]3O[C@@]4(C)CC[C@@H]1[C@]32OO4 [artemisinin, reference compound]
therapeutic effect on malaria infection (parasitemia) ([1]; administration alone): an effect of artemisinin could not be observed

Cc1nccnc1N1CCN(S(=O)(=O)c2ccc(-c3ccc(=O)[nH]n3)s2)CC1 [MBX-4055]
proliferation of Plasmodium spp. (Plasmodium spp.): known to inhibit proliferation of Plasmodium spp.

CC(=O)Nc1cc(C(=O)Nc2cc(C(=O)NCCC(=O)Nc3cn(C)c(C(=O)Nc4cc(C(=O)NCCCC(=O)Nc5cn(C)c(C(=O)Nc6cc(C(=O)Nc7cc(C(=O)NCCC(=O)Nc8cc(C(=O)NCCC(=O)NCCCN(C)C)n(C)c8)n(C)c7)n(C)c6)n5)n(C)c4)n3)n(C)c2)n(C)c1 [AP2-PIPA2]
inhibitory effects on proliferation (parasitemia) ([2]; any of the Plasmodium strains): no inhibitory effects
life cycle of P. falciparum (microscopic observation, Giemsa staining) ([3]; human red blood cells): thought to be effective at a higher concentration range than that used in this experiment

CC(=O)Nc1cc(C(=O)Nc2cc(C(=O)NCCC(=O)Nc3cn(C)c(C(=O)Nc4cc(C(=O)NCCCC(=O)Nc5cn(C)c(C(=O)Nc6cc(C(=O)Nc7cc(C(=O)NCCC(=O)Nc8cc(C(=O)NCCC(=O)NCCCN(C)C)n(C)c8)n(C)c7)n(C)c6)n5)n(C)c4)n3)n(C)c2)n(C)c1 [AP2-PIPA1]
AST activity ([4]; mouse, in vivo, ip, 10 mg/kg): an upward trend was observed
deaths [4, 9]: No deaths were observed
general conditions, weight change, hematology test, blood chemistry test, autopsy [4, 9]: no changes that were considered to be abnormal were found
minimum lethal dose ([4]; single intraperitoneal administration, mice): greater than 20 mg/kg
IC50, proliferation (parasitemia) ([2]; artemisinin-resistant plasmodium strain): lower IC50
therapeutic effect on malaria infection (parasitemia) ([1]; administration alone): a therapeutic effect on malaria infection was confirmed
therapeutic effect on malaria infection (parasitemia) ([1]; combined administration with artemisinin): a therapeutic effect on malaria infection was confirmed
mouse death [5, 10]: mouse death
parasitemia [5, 10]: suppression of parasitemia
parasitemia ([5]; day 1 to day 7, blood at 11 or 13 days after infection): dose-dependent suppression of parasitemia
Kd [6]: 4 nM
toxicity (cytotoxicity) (U937 cells, A549 cells): not toxic
life cycle of P. falciparum (microscopic observation, Giemsa staining) ([3]; human red blood cells): arrested a life cycle of P. falciparum at a trophozoite stage
morphological change (FACS analysis) ([3]; human red blood cells, at both 24 and 48 hours after infection): a morphological change was arrested at the trophozoite stage
transition to schizont stage / schizont formation [3]: specifically inhibits transition to a schizont stage
transition to schizont stage / schizont formation ([3]; listed as AP2-PIPA): strongly inhibit schizont formation
toxicity (cytotoxicity) [7]: not toxic
toxicity of multiple administrations ([8]; dose range examined): not prominently toxic
ALT [8, 11]: no significant difference
AST [8, 11]: no significant difference
